Experimental data from patent US9963467B2, “Boronic acid derivatives and therapeutic uses thereof” (Rempex Pharmaceuticals, Inc., priority 2014, dated 2018).

Key:
[1] = system: ECL1002; experiment: Tigemonam potentiation (MPC@4), ECL1002; assay type: cell-based; conditions: BLI with tigemonam at 4 μg/mL
[2] = system: KP1005 (CTX-M-14); experiment: Tigemonam potentiation (MPC@4), KP1005; assay type: cell-based; conditions: BLI with tigemonam at 4 μg/mL
[3] = target: SHV-12 (Klebsiella pneumoniae, UniProt P0AD64, E235K/G234S/L31Q); experiment: Ki, nitrocefin cleavage by purified enzyme, SHV-12; assay type: biochemical; conditions: nitrocefin reporter substrate; read-out: Ki (SHV-12, NCF)
In short: (§1)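 Purified enzyme was preincubated with a range of inhibitor concentrations in reaction buffer for 10 min at room temperature. Nitrocefin was then added and its cleavage followed at 490 nm every 10 sec for 10 min.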

[4] = target: KPC-2 (Klebsiella pneumoniae, UniProt Q9F663); experiment: Ki, nitrocefin cleavage by purified enzyme, KPC-2; assay type: biochemical; conditions: nitrocefin reporter substrate; read-out: Ki (KPC-2, NCF)
In short: as §1

[5] = system: KP1009 (CTX-M-15); experiment: organism not typed; assay type: cell-based
[6] = system: EC1010 (CMY-6); experiment: organism not typed; assay type: cell-based
[7] = system: KP1005 (CTX-M-14); experiment: Aztreonam potentiation (MPC@4), KP1005; assay type: cell-based; conditions: BLI with aztreonam at 4 μg/mL
[8] = target: P99 (Enterobacter cloacae, UniProt P05364); experiment: Ki, nitrocefin cleavage by purified enzyme, P99; assay type: biochemical; conditions: nitrocefin reporter substrate; read-out: Ki (P99, NCF)
In short: as §1

[9] = target: Pa AmpC (Pseudomonas aeruginosa, UniProt P24735); experiment: Ki, nitrocefin cleavage by purified enzyme, Pa AmpC; assay type: biochemical; conditions: nitrocefin reporter substrate; read-out: Ki (Pa AmpC, NCF)
In short: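 With nitrocefin serving as reporter, cleavage by purified enzyme was tracked at 490 nm every 10 sec for 10 min, following 10 min preincubation at room temperature with inhibitor at various concentrations, to obtain Ki.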

[10] = system: KP1010 (SHV-12); experiment: Tigemonam potentiation (MPC@4), KP1010; assay type: cell-based
[11] = system: ec302 (TEM-10); experiment: Tigemonam potentiation (MPC@4), ec302; assay type: cell-based
[12] = system: KP1009 (CTX-M-15); experiment: Tigemonam potentiation (MPC@4), KP1009; assay type: cell-based; conditions: BLI with tigemonam at 4 μg/mL
[13] = system: KP1086 (OXA-48); experiment: Biapenem potentiation (MPC@1), KP1086; conditions: BLI with biapenem at 1 μg/mL
[14] = system: ec308 (SHV-5); experiment: Tigemonam potentiation (MPC@4), ec308; assay type: cell-based
[15] = system: KP1004 (KPC-2); experiment: Aztreonam potentiation (MPC@4), KP1004; assay type: cell-based; conditions: BLI with aztreonam at 4 μg/mL
[16] = system: ECL1002; experiment: Aztreonam potentiation (MPC@4), ECL1002; assay type: cell-based; conditions: BLI with aztreonam at 4 μg/mL
[17] = target: CTX-M-14 (Escherichia coli, UniProt Q9L5C7); experiment: Ki, nitrocefin cleavage by purified enzyme, CTX-M-14; assay type: biochemical; conditions: nitrocefin reporter substrate; read-out: Ki (CTX-M-14, NCF)
In short: as §1

[18] = system: KP1004 (KPC-2); experiment: Biapenem potentiation (MPC@1), KP1004; conditions: BLI with biapenem at 1 μg/mL
[19] = system: ec302 (TEM-10); experiment: Aztreonam potentiation (MPC@4), ec302; assay type: cell-based; conditions: BLI with aztreonam at 4 μg/mL
[20] = system: EC1010 (CMY-6); experiment: Tigemonam potentiation (MPC@4), EC1010; assay type: cell-based; conditions: BLI with tigemonam at 4 μg/mL
[21] = target: OXA-48 (Klebsiella pneumoniae, UniProt Q6XEC0); experiment: Ki, nitrocefin cleavage by purified enzyme, OXA-48; assay type: biochemical; conditions: nitrocefin reporter substrate; read-out: Ki (OXA-48, NCF)
In short: as §1

Sequence of Pa AmpC (P24735 27-397): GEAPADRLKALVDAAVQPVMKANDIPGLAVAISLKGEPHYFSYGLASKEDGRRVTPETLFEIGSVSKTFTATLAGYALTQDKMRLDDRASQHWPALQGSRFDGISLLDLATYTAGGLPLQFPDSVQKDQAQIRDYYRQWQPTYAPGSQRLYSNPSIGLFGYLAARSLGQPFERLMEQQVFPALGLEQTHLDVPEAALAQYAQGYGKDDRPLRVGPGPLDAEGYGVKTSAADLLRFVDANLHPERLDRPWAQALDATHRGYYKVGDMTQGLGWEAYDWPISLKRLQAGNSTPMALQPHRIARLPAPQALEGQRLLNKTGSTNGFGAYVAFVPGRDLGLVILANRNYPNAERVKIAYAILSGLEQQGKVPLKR
Sequence of CTX-M-14 (Q9L5C7 29-291): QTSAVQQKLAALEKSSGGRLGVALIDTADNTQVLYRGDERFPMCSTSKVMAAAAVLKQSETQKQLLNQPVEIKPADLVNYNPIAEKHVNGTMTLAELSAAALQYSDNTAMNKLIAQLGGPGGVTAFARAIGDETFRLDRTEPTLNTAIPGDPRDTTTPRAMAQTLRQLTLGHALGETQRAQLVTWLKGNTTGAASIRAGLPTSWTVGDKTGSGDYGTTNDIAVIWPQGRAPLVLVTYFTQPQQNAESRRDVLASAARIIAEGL
Sequence of KPC-2 (Q9F663 25-293, looked up, species assumed): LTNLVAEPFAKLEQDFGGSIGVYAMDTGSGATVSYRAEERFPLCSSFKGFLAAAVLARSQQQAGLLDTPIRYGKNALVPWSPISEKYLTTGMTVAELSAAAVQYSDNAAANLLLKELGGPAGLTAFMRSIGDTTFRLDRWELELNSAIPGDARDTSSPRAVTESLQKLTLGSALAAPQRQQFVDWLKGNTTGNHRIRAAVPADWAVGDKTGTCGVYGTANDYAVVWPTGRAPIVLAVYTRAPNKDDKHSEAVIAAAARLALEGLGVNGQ
Sequence of P99 (P05364 21-381): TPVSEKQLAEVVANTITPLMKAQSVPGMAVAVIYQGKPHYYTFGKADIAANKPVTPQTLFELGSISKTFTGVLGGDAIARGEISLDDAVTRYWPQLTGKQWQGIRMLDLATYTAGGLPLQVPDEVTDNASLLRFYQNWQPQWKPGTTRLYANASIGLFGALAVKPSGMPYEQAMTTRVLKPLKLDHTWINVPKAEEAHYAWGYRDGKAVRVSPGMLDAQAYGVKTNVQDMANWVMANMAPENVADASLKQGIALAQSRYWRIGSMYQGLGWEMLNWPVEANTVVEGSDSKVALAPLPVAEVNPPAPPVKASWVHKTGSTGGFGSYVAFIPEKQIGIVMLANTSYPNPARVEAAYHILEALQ
Sequence of SHV-12 (P0AD64 22-286 L31Q/G234S/E235K): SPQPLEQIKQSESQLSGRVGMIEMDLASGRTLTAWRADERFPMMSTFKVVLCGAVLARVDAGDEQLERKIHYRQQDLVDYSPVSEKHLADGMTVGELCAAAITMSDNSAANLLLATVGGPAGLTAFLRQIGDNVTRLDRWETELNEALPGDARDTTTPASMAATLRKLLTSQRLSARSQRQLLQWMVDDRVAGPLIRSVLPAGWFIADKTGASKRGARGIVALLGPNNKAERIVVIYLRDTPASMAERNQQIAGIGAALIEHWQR
Sequence of OXA-48 (Q6XEC0 23-265, looked up, species assumed): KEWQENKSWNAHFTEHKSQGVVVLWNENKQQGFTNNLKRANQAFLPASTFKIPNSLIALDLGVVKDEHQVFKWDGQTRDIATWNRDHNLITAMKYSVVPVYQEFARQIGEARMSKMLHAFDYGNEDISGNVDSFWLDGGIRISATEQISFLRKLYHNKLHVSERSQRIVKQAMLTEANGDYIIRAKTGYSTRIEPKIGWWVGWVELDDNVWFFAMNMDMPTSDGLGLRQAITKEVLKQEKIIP

| Structure (SMILES) | TIG MPC4 ECL1002 [1] | TIG MPC4 CTX-M-14 KP1005 [2] | Ki [3] | Ki [4] | AZT MPC4 CTX-M-15 KP1009 [5] | AZT MPC4 CMY-6 EC1010 [6] | Ki [8] | Ki [9] | TIG MPC4 SHV-12 KP1010 [10] | TIG MPC4 TEM-10 ec302 [11] | TIG MPC4 CTX-M-15 KP1009 [12] | BPM MPC1 OXA-48 KP1086 [13] | TIG MPC4 SHV-5 ec308 [14] | AZT MPC4 KPC-2 KP1004 [15] | AZT MPC4 ECL1002 [16] | Ki [17] | BPM MPC1 KP1004 KPC-2 [18] | AZT MPC4 TEM-10 ec302 [19] | TIG MPC4 CMY-6 EC1010 [20] | Ki [21] | further results |
| --- | --- | --- | --- | --- | --- | --- | --- | --- | --- | --- | --- | --- | --- | --- | --- | --- | --- | --- | --- | --- | --- |
| Nc1nnc(C(=O)N[C@H]2Cc3ccc(F)c(C(=O)O)c3OB2O)s1 [Compound 8, (R)-3-(5-amino-1,3,4-thiadiazole-2-carboxamido)-7-fluoro-2-hydroxy-3,4-dihydro-2H-benzo[e][1,2]oxaborinine-8-carboxylic acid] | Y (MIC of 1 μg/mL to 10 μg/mL) | Y (MIC of 1 μg/mL to 10 μg/mL) | < 1 nM | > 10 nM | Y (key: X: MIC of less than 1 ng/mL; Y: MIC of 1 μg/mL to 10 μg/mL; Z: MIC of greater than 10 μg/mL) | Y (key: X: MIC of less than 1 ng/mL; Y: MIC of 1 μg/mL to 10 μg/mL; Z: MIC of greater than 10 μg/mL) | > 10 nM | > 10 nM | X (key: X: MIC of less than 1 μg/mL; Y: MIC of 1 μg/mL to 10 μg/mL; Z: MIC of greater than 10 μg/mL) | Y (key: X: MIC of less than 1 ng/mL; Y: MIC of 1 μg/mL to 10 μg/mL; Z: MIC of greater than 10 μg/mL) | Y (MIC of 1 μg/mL to 10 μg/mL) | Y (MIC of 1 μg/mL to 10 μg/mL) | X (key: X: MIC of less than 1 μg/mL; Y: MIC of 1 μg/mL to 10 μg/mL; Z: MIC of greater than 10 μg/mL) | Y (MIC of 1 μg/mL to 10 μg/mL) | Y (MIC of 1 μg/mL to 10 μg/mL) | < 1 nM | X (MIC of less than 1 μg/mL) | Y (MIC of 1 μg/mL to 10 μg/mL) | X (MIC of less than 1 μg/mL) | < 1 nM | AZT MPC4 CTX-M-14 KP1005 [7]: Y (MIC of 1 μg/mL to 10 μg/mL) |
| CSCC(=O)N[C@H]1Cc2ccc(OCCO)c(C(=O)O)c2OB1O [Compound 20, (R)-2-hydroxy-7-(2-hydroxyethoxy)-3-(2-(methylthio)acetamido)-3,4-dihydro-2H-benzo[e][1,2]oxaborinine-8-carboxylic acid] | X (MIC of less than 1 μg/mL) | Y (MIC of 1 μg/mL to 10 μg/mL) | < 1 nM | > 10 nM | Y (key: X: MIC of less than 1 ng/mL; Y: MIC of 1 μg/mL to 10 μg/mL; Z: MIC of greater than 10 μg/mL) | Y (key: X: MIC of less than 1 ng/mL; Y: MIC of 1 μg/mL to 10 μg/mL; Z: MIC of greater than 10 μg/mL) | > 10 nM | > 10 nM | X (key: X: MIC of less than 1 μg/mL; Y: MIC of 1 μg/mL to 10 μg/mL; Z: MIC of greater than 10 μg/mL) | Z (key: X: MIC of less than 1 ng/mL; Y: MIC of 1 μg/mL to 10 μg/mL; Z: MIC of greater than 10 μg/mL) | X (MIC of less than 1 μg/mL) | Z (MIC of greater than 10 μg/mL) | X (key: X: MIC of less than 1 μg/mL; Y: MIC of 1 μg/mL to 10 μg/mL; Z: MIC of greater than 10 μg/mL) | Y (MIC of 1 μg/mL to 10 μg/mL) | Y (MIC of 1 μg/mL to 10 μg/mL) | < 1 nM | X (MIC of less than 1 μg/mL) | Y (MIC of 1 μg/mL to 10 μg/mL) | X (MIC of less than 1 μg/mL) | < 1 nM | – |
| CSCC(=O)N[C@H]1Cc2ccc(SCCO)c(C(=O)O)c2OB1O [Compound 23, (R)-2-hydroxy-7-(2-hydroxyethylthio)-3-(2-(methylthio)acetamido)-3,4-dihydro-2H-benzo[e][1,2]oxaborinine-8-carboxylic acid] | X (MIC of less than 1 μg/mL) | X (MIC of less than 1 μg/mL) | < 1 nM | > 10 nM | Y (key: X: MIC of less than 1 ng/mL; Y: MIC of 1 μg/mL to 10 μg/mL; Z: MIC of greater than 10 μg/mL) | Y (key: X: MIC of less than 1 ng/mL; Y: MIC of 1 μg/mL to 10 μg/mL; Z: MIC of greater than 10 μg/mL) | > 10 nM | > 10 nM | X (key: X: MIC of less than 1 μg/mL; Y: MIC of 1 μg/mL to 10 μg/mL; Z: MIC of greater than 10 μg/mL) | Y (key: X: MIC of less than 1 ng/mL; Y: MIC of 1 μg/mL to 10 μg/mL; Z: MIC of greater than 10 μg/mL) | Y (MIC of 1 μg/mL to 10 μg/mL) | Z (MIC of greater than 10 μg/mL) | X (key: X: MIC of less than 1 μg/mL; Y: MIC of 1 μg/mL to 10 μg/mL; Z: MIC of greater than 10 μg/mL) | Y (MIC of 1 μg/mL to 10 μg/mL) | Y (MIC of 1 μg/mL to 10 μg/mL) | < 1 nM | X (MIC of less than 1 μg/mL) | Y (MIC of 1 μg/mL to 10 μg/mL) | Y (MIC of 1 μg/mL to 10 μg/mL) | < 1 nM | – |
| COc1ccc2c(c1C(=O)O)OB(O)[C@@H](NC(=O)c1nnc(N)s1)C2 [Compound 28, (R)-3-(5-amino-1,3,4-thiadiazole-2-carboxamido)-2-hydroxy-7-methoxy-3,4-dihydro-2H-benzo[e][1,2]oxaborinine-8-carboxylic acid] | Y (MIC of 1 μg/mL to 10 μg/mL) | Y (MIC of 1 μg/mL to 10 μg/mL) | < 1 nM | > 10 nM | Y (key: X: MIC of less than 1 ng/mL; Y: MIC of 1 μg/mL to 10 μg/mL; Z: MIC of greater than 10 μg/mL) | – | 1 to 10 nM | 1 to 10 nM | X (key: X: MIC of less than 1 μg/mL; Y: MIC of 1 μg/mL to 10 μg/mL; Z: MIC of greater than 10 μg/mL) | Y (key: X: MIC of less than 1 ng/mL; Y: MIC of 1 μg/mL to 10 μg/mL; Z: MIC of greater than 10 μg/mL) | Y (MIC of 1 μg/mL to 10 μg/mL) | Z (MIC of greater than 10 μg/mL) | X (key: X: MIC of less than 1 μg/mL; Y: MIC of 1 μg/mL to 10 μg/mL; Z: MIC of greater than 10 μg/mL) | Y (MIC of 1 μg/mL to 10 μg/mL) | Y (MIC of 1 μg/mL to 10 μg/mL) | < 1 nM | Y (MIC of 1 μg/mL to 10 μg/mL) | Y (MIC of 1 μg/mL to 10 μg/mL) | X (MIC of less than 1 μg/mL) | < 1 nM | AZT MPC4 CTX-M-14 KP1005 [7]: Y (MIC of 1 μg/mL to 10 μg/mL) |
| CSCC(=O)N[C@H]1Cc2ccc(O)c(C(=O)O)c2OB1O [Compound 34, (R)-2,7-dihydroxy-3-(2-(methylthio)acetamido)-3,4-dihydro-2H-benzo[e][1,2]oxaborinine-8-carboxylic acid] | X (MIC of less than 1 μg/mL) | X (MIC of less than 1 μg/mL) | < 1 nM | > 10 nM | Y (key: X: MIC of less than 1 ng/mL; Y: MIC of 1 μg/mL to 10 μg/mL; Z: MIC of greater than 10 μg/mL) | Y (key: X: MIC of less than 1 ng/mL; Y: MIC of 1 μg/mL to 10 μg/mL; Z: MIC of greater than 10 μg/mL) | 1 to 10 nM | > 10 nM | X (key: X: MIC of less than 1 μg/mL; Y: MIC of 1 μg/mL to 10 μg/mL; Z: MIC of greater than 10 μg/mL) | Y (key: X: MIC of less than 1 ng/mL; Y: MIC of 1 μg/mL to 10 μg/mL; Z: MIC of greater than 10 μg/mL) | Y (MIC of 1 μg/mL to 10 μg/mL) | Y (MIC of 1 μg/mL to 10 μg/mL) | X (key: X: MIC of less than 1 μg/mL; Y: MIC of 1 μg/mL to 10 μg/mL; Z: MIC of greater than 10 μg/mL) | Y (MIC of 1 μg/mL to 10 μg/mL) | Y (MIC of 1 μg/mL to 10 μg/mL) | < 1 nM | X (MIC of less than 1 μg/mL) | Y (MIC of 1 μg/mL to 10 μg/mL) | X (MIC of less than 1 μg/mL) | < 1 nM | – |
